{"source": "paper PMC9346113", "about": "“Therapeutic impact of BET inhibitor BI 894999 treatment: backtranslation from the clinic” (British Journal of Cancer, 2022)", "key": {"[1]": {"test_system": "Ty-82", "experiment": "Combination viability assay, Bliss analysis (CGI), Ty-82", "format": "cell-based, human", "details": "partner in combination with BI 894999 (10–20 nM)", "protocol": "(§1) Viability assays were performed on 96-well flat-bottom microtiter plates and incubated with Alamar Blue solution (Invitrogen, Carlsbad, US-CA). The effects of drug combinations were analysed using the Bliss Independence Model."}, "[2]": {"test_system": "10326 BRD3-NUT", "experiment": "Cell proliferation assay (Alamar readout), 10326", "format": "cell-based, human", "details": "96h, read-out: geomean GI50", "protocol": "(§2) The NUT Carcinoma cell line Ty-82 was purchased from JCRB Japan No. 1330 and cultivated in RPMI 1640 supplemented with 10% fetal calf serum (FCS). The NC cell lines 10–15, 14169 and 10326 were in-licensed from Christopher French, Brigham & Womens Hospital, Boston, and were cultivated in DMEM supplemented with glutamax and 10% FCS.\nas §1\n(§3) Dose response curves (96h cell proliferation assay - Alamar readout) on four NC cell lines with BET inhibitor BI 894999. Yellow bar: readout t zero (before adding of compound). Green bar: DMSO control (max proliferation).\n(§4) Dose response curves (96h cell proliferation assay - Alamar readout) on four NC cell lines with multiple BET inhibitors."}, "[3]": {"experiment": "PK analysis in mouse plasma", "format": "in vivo", "details": "CIEA NOG (NOD.Cg-Prkdc^scid Il2rg^tm1Sug/JicTac), oral, mice, 5 mg/kg CCS1477, exposure defined as sufficient for a synergistic effect, read-out: plasma concentration at 6 h after compound application", "from_the_text": "PK analysis in mouse plasma. Oral treatment at the indicated doses. Sampling at the indicated timepoints."}, "[4]": {"test_system": "Ty-82 xenograft (BRD4-NUT)", "experiment": "Ty-82 NC xenograft model", "format": "in vivo, mice", "from_the_text": "(§5) Mice were group-housed (8–10 mice per cage) under pathogen-free and controlled environmental conditions (21 ± 1.5 C temperature, 55 ± 10% humidity) in an AAALAC accredited facility and handled according to the institutional, governmental and European Union guidelines (Austrian Animal Protection Laws, GV-SOLAS and FELASA guidelines). Animal studies were approved by the internal ethics committee and the local government committee. Mice were 6- to 8-week-old female CIEA NOG purchased from Taconic, Denmark (NOD.Cg-Prkdc^scid Il2rg^tm1Sug/JicTac). 5 × 10^6 NC tumour cells were injected subcutaneously into the right flank of the mice (1 site per mouse). Mice were randomly distributed between the treatment and the vehicle control when tumours were well established and had reached volumes of 100–150 mm^3. Compounds were suspended in 0.5% Natrosol and administered once daily intra-gastral by gavage needle. Tumour diameters were measured three times a week with a calliper. […] Within each subtopic the p-values of the efficacy parameters were adjusted for multiple comparisons according to Bonferroni–Holm. The p-values of the tolerability parameter remained unadjusted in order not to overlook a possible adverse effect. The level of significance was fixed at α = 5%. An adjusted p-value of less than 0.05 was considered to show a statistically significant difference between the groups. The statistical evaluation was prepared using the software Graph Pad Prism."}, "[5]": {"test_system": "10326 xenograft (BRD3-NUT)", "experiment": "10326 NC xenograft model", "format": "in vivo", "from_the_text": "as §5"}, "[6]": {"test_system": "Ty-82 BRD4-NUT", "experiment": "Cell proliferation assay (Alamar readout), Ty-82", "format": "cell-based, human", "details": "read-out: geomean GI50", "protocol": "as §2, §1, §3, §4"}, "[7]": {"test_system": "10–15 xenograft (BRD4-NUT)", "experiment": "10–15 NC xenograft model", "format": "in vivo, mice", "from_the_text": "as §5"}, "[8]": {"test_system": "T1, BRD4-NUT", "T1 construct": "endogenous in cells; host or cells: Ty-82 NUT carcinoma cells", "experiment": "Immunofluorescence staining of NUT megadomains, Ty-82", "format": "cell-based, human", "details": "Ty-82; 30 min treatment", "protocol": "Cells were seeded on four-well chamber slides (Merck Millipore, #PEZGS0416). After treatment, cells were fixed with 4% PFA (16% Solution, Thermo Fischer #28908 Paraformaldehyde, diluted 1:4 in PBS), permeabilised with 0,1% TX-100 (Sigma #93443, diluted in PBS). After blocking in blocking buffer (10% normal goat serum, Sigma #G9023–10ml, diluted in blocking solution: 2% BSA/PBS, Sigma #A7284–50ml, diluted 1:15 in PBS), the first antibody mAB rabbit anti-NUT 1:1000 (clone C52B1, Cell Signaling #3625) in blocking buffer was added, followed by incubation with the 2nd antibody goat anti-rabbit Alexa*488 1:1000 (Thermo Fisher, #A-11008) in blocking buffer in the dark. Cells were mounted with ProLong Gold Antifade Mountant with DAPI (Thermo Fisher, #P36931) and analysed using a Laser scanning microscope (LSM700). […]\nImmunofluorescence staining of NUT megadomains on NC Ty-82 treated with BI with BI 894999 30nM for 1 h, then changed to 10 nM or 5 nM or 2.5 nM or control for 24 h."}, "[9]": {"test_system": "T2, BRD3-NUT", "T2 construct": "endogenous in cells; host or cells: 10326 NUT carcinoma cells, in culture (A11) and as subcutaneous xenograft tumours in NOG mice (A26)", "experiment": "IHC of 10326 xenograft tumours, NUT protein", "format": "in vivo, mice", "details": "day 21, CCS1477 at either dose (5 or 10 mg/kg)", "protocol": "Immunohistochemistry was performed on formalin-fixed, paraffin-embedded tumour tissue using antibodies against human Ki67(Cell Signaling #9027, 1:400 dilution), anti-human mitochondria (Abcam ab92824, 1:1000 dilution) and against endogenous NUT protein (Cell Signaling #3625, 1:50 dilution) used to detect NUT fusion proteins. Digital images of whole tissue sections were acquired using a Leica SCN400 histology scanner (Leica Microsystems). Ki67-positive index was evaluated using Halo Software V. 3.2 (Indica lab). Regions of interest (ROIs) within the tissue sections were first identified using Halo Software via machine learning technology across pathological samples and tissue control, within these ROIs, nuclei were detected and classified as positive or negative based on IHC staining thresholds.\nBRD3-NUT 10326 tumor sections after treatment with 2 mg/kg BI 894999, 5 mg/kg or 10 mg/kg CCS1477 and the combination of both. IHC staining for NUT protein."}, "[10]": {"test_system": "14169 BRD4-NUT", "experiment": "Cell proliferation assay (Alamar readout), 14169", "format": "cell-based, human", "details": "96h, read-out: geomean GI50", "protocol": "as §2, §1, §3, §4"}, "[11]": {"test_system": "10–15 BRD4-NUT", "experiment": "Cell proliferation assay (Alamar readout), 10–15", "format": "cell-based, human", "details": "96h, read-out: geomean GI50", "protocol": "as §2, §1, §3, §4"}, "[12]": {"test_system": "10–15 xenografts", "design": "method as in PMID 32371576", "details": "mice bearing 10–15 xenografts; tumour regression not described; cited from earlier work"}, "[13]": {"details": "mice; 1 mg/kg romidepsin; BI 894999 at clinically relevant doses; data not shown"}}, "note": "Like-named read-outs stand apart in the source and are kept apart here."}
{"smiles": "CNC(=O)Nc1ccc2c(c1)CC[C@@]21OC(=O)N(CC(=O)N(Cc2ccc(F)cc2)[C@@H](C)C(F)(F)F)C1=O", "note": "[A485]", "values": [{"measurement": "cell growth inhibition >100% reached at clinically achievable concentrations", "setting": "[1]", "value": "not"}]}
{"smiles": "CO[C@H]1CC[C@H](n2c([C@@H]3CCCC(=O)N3c3ccc(F)c(F)c3)nc3cc(-c4c(C)noc4C)ccc32)CC1", "note": "[CCS1477]", "values": [{"measurement": "GI50", "setting": "[2]; Homo sapiens", "value": 0.0227, "unit": "µM"}, {"measurement": "concentration at 6 h", "setting": "[3]", "value": "0.2 to 0.3", "unit": "µM"}, {"measurement": "TGI (tumour growth inhibition)", "setting": "[4]; 5 mg/kg CCS1477 p.o. daily", "value": 29, "unit": "%"}, {"measurement": "TGI (tumour growth inhibition)", "setting": "[4]; 10 mg/kg CCS1477 p.o. daily", "value": 11, "unit": "%"}, {"measurement": "TGI", "setting": "[5]; 5 mg/kg CCS1477", "value": 65, "unit": "%"}, {"measurement": "TGI", "setting": "[5]; 10 mg/kg CCS1477", "value": 88, "unit": "%"}, {"measurement": "cell growth inhibition >100% reached at clinically achievable concentrations", "setting": "[1]", "value": "accomplished"}, {"measurement": "GI50", "setting": "[6]; Homo sapiens, TY82, 96h", "value": 0.0385, "unit": "µM"}, {"measurement": "TGI", "setting": "[7]; 5 mg/kg CCS1477", "value": 24, "unit": "%"}, {"measurement": "TGI", "setting": "[7]; 10 mg/kg CCS1477", "value": 30, "unit": "%"}, {"measurement": "concentration at which BRD4-NUT detaches from chromatin / is re-distributed", "setting": "[8]", "value": "> 1000", "unit": "nM"}, {"measurement": "loss of speckled megadomain localisation (NUT staining)", "setting": "[9]", "value": "not seen"}, {"measurement": "GI50", "setting": "[10]; Homo sapiens", "value": 0.0629, "unit": "µM"}, {"measurement": "GI50", "setting": "[11]; Homo sapiens", "value": 0.0329, "unit": "µM"}]}
{"smiles": "CNC(=O)N1CCc2c(c(N3CCCc4cc(-c5cnn(C)c5)c(C(F)F)cc43)nn2C2CCOCC2)C1", "note": "[GNE-781]", "values": [{"measurement": "cell growth inhibition >100% reached at clinically achievable concentrations", "setting": "[1]", "value": "accomplished"}]}
{"smiles": "CCNC(=O)C[C@@H]1N=C(c2ccc(Cl)cc2)c2cc(OC)ccc2-n2c(C)nnc21", "note": "[GSK525762]", "values": [{"measurement": "GI50", "setting": "[2]; Homo sapiens", "value": 0.0436, "unit": "µM"}, {"measurement": "GI50", "setting": "[6]; Homo sapiens, TY82, 96h", "value": 0.154, "unit": "µM"}, {"measurement": "GI50", "setting": "[10]; Homo sapiens", "value": 0.055, "unit": "µM"}, {"measurement": "GI50", "setting": "[11]; Homo sapiens", "value": 0.113, "unit": "µM"}]}
{"smiles": "Cc1sc2c(c1C)C(c1ccc(Cl)cc1)=N[C@@H](CC(=O)OC(C)(C)C)c1nnc(C)n1-2", "note": "[JQ1]", "values": [{"measurement": "GI50", "setting": "[2]", "value": 0.0432, "unit": "µM"}, {"measurement": "GI50", "setting": "[6]; 96h", "value": 0.11, "unit": "µM"}, {"measurement": "GI50", "setting": "[10]", "value": 0.0492, "unit": "µM"}, {"measurement": "GI50", "setting": "[11]", "value": 0.0844, "unit": "µM"}]}
{"smiles": "Cc1cc(-c2ccc3nc(C4CCOCC4)n(CCOC(F)(F)F)c3c2)cn(C)c1=O", "note": "[NEO2734]", "values": [{"measurement": "GI50", "setting": "[2]", "value": 0.0112, "unit": "µM"}, {"measurement": "efficacy compared to BETi alone", "setting": "[12]", "value": "greater growth inhibition and significantly improved survival"}, {"measurement": "GI50", "setting": "[6]; 96h", "value": 0.0265, "unit": "µM"}, {"measurement": "concentration at which BRD4-NUT detaches from chromatin / is re-distributed", "setting": "[8]", "value": "> 100", "unit": "nM"}, {"measurement": "GI50", "setting": "[10]", "value": 0.0204, "unit": "µM"}, {"measurement": "GI50", "setting": "[11]", "value": 0.0226, "unit": "µM"}]}
{"smiles": "Cc1[nH]c2ccccc2c1CCNCc1ccc(/C=C/C(=O)NO)cc1", "note": "[Panobinostat]", "values": [{"measurement": "cell growth inhibition >100% reached at clinically achievable concentrations", "setting": "[1]", "value": "accomplished"}]}
{"smiles": "C/C=C1\\NC(=O)[C@H]2CSSCC/C=C/[C@H](CC(=O)N[C@H](C(C)C)C(=O)N2)OC(=O)[C@H](C(C)C)NC1=O", "note": "[Romidepsin]", "values": [{"measurement": "benefit when added to BI 894999", "setting": "[13]", "value": "did not show benefit"}, {"measurement": "cell growth inhibition >100% reached at clinically achievable concentrations", "setting": "[1]", "value": "accomplished"}]}
